The results in this text go back to US20260207570A1, “OPTIMIZED DOSING OF LERIGLITAZONE” (MINORYX THERAPEUTICS S.L., priority 2022, published 2026).

Data set [1] is described as follows: Phase 1 safety and tolerability (treatment-emergent adverse events). It is filed as in vivo, human. As to the method: Study design: A phase 1, randomized, double blind, placebo-controlled, single-center clinical study in 33 male healthy volunteers (HV) (19-54 years, 63.2-95.7 Kg) was conducted with leriglitazone HCl and divided in two parts: a single ascending dose (SAD) with three dose levels (30, 90 and 270 mg) in fasted conditions, followed with two dose levels (90 and 270 mg) in fed conditions; a multiple ascending dose (MAD) with a double-blind, parallel-design with two dose levels (135 and 270 mg) for 8 days and a separate cohort of subjects in an open-label parallel design with two dose levels (135 and 270 mg) including cerebrospinal fluid (CSF) collection on day 8. In the fasted conditions a fasting period of at least 4 hours was required before obtaining plasma samples. The food effect (FE) was assessed by comparing fasted with fed conditions (dosing after a high-fat breakfast per FDA definition with a calculated caloric content of 918 kcal). In the MAD part (fed) the medication was taken before a normal breakfast. Leriglitazone HCl was supplied by ChemConnection and an oral suspension of leriglitazone (20% w/v kleptose, 2% ethanol in 100 mM phosphate buffer pH=7.8) at 6 mg/ml was used in the study. Safety: Safety and tolerability assessments consisted of adverse events (AEs), clinical laboratory, vital signs, 12-lead electrocardiogram (ECG), and physical examination.

Substrate in data set [2]: CC(O)c1ccc(CCOc2ccc(CC3SC(=O)NC3=O)cc2)nc1
Kind of data set: Metabolism kinetics with recombinant CYP2C8. It is filed as in vitro ADME, human. The source says: CYP2C8 and CYP3A4 were identified in vitro as the major contributing enzymes of leriglitazone with CYP2C8 mostly responsible for the formation of the main metabolite M3. Kinetic parameters of human CYP2C8 and CYP3A4 mediated metabolism of leriglitazone were studied in in vitro studies using recombinant CYP3A4 and CYP2C8 enzymes (ADMESCOPE, Finland). […] As the disappearance of leriglitazone was very slow especially at high initial concentrations, the accuracy of the fit was not as good as based on M3 formation. […] Thus, it was not possible to fit the kinetic parameters Km and Vmax.

Where [3] appears, read: phase 1, healthy male volunteers.
[4] abbreviates: other: recombinant CYP2C8, based on M3 formation.
The mark [5] stands for this setting: other: recombinant CYP2C8, based on leriglitazone depletion.

On to `CC(O)c1ccc(CCOc2ccc(CC3SC(=O)NC3=O)cc2)nc1.Cl` (centres unmarked) [leriglitazone HCl, 5-[[4-[2-[5-(1-hydroxyethyl)pyridin-2-yl]ethoxy]phenyl]methyl]-1,3-thiazolidine-2,4-dione hydrochloride], for which the “clinical laboratory evaluations, vital signs, ECGs and physical examinations” value in data set [1] (phase 1, healthy male subjects) is recorded as “No clinically significant changes from baseline”. Besides, in data set [1] (setting [3]), the “serious AEs” value is recorded as “no serious AEs reported” and the “severity of treatment-emergent adverse events” value is on record as “of mild severity”. The safety and tolerability entry in data set [1] (single and multiple doses, healthy male subjects) is “safe and well tolerated”.

B1: human CYP2C8 (Homo sapiens) (protein)
chain: MEPFVVLVLCLSFMLLFSLWRQSCRRRKLPPGPTPLPIIGNMLQIDVKDICKSFTNFSKVYGPVFTVYFGMNPIVVFHGYEAVKEALIDNGEEFSGRGNSPISQRITKGLGIISSNGKRWKEIRRFSLTTLRNFGMGKRSIEDRVQEEAHCLVEELRKTKASPCDPTFILGCAPCNVICSVVFQKRFDYKDQNFLTLMKRFNENFRILNSPWIQVCNNFPLLIDCFPGTHNKVLKNVALTRSYIREKVKEHQASLDVNNPRDFIDCFLIKMEQEKDNQKSEFNIENLVGTVADLFVAGTETTSTTLRYGLLLLLKHPEVTAKVQEEIDHVIGRHRSPCMQDRSHMPYTDAVVHEIQRYSDLVPTGVPHAVTTDTKFRNYLIPKGTTIMALLTSVLHDDKEFPNPNIFDPGHFLDKNGNFKKSDYFMPFSAGKRICAGEGLARMELFLFLTTILQNFNLKSVDDLKNLNTTAVTKGIVSLPPSYQICFIPV
notes: purchased ADMESCOPE, Finland
As for B1, in data set [2] (setting [4]), the Michaelis constant (Km) was determined as 34.0 µM and the kcat came to 2.27 pmol/min/pmol CYP. Moreover, in data set [2] (setting [5]), the Michaelis-Menten constant (Km) came out at 13.7 µM and the kcat turned out to be 1.60 pmol/min/pmol CYP.
